Laboratory results taken from patent US20230256095A1, “DYES FOR USE IN A METHOD OF TREATMENT OF VITREOUS OPACITY-RELATED DISEASES” (UNIVERSITEIT GENT, priority 2020, published 2023).

Key:
[1] = test system: immortalized human Müller cells (MIO-M1); assay: MTT toxicity assay on Müller cells; format: cell-based
Experimental: MIO-M1 cells were cultured in DMEM Glutamax medium (Thermo Fisher Scientific, Waltham, USA). The medium contained 10% foetal bovine serum (FBS) (Thermo Fisher Scientific, Waltham, USA), 100 IU/ml penicillin (Gibco®-Invitrogen life technologies, Walthan, USA), 100 μg/ml streptomycin (Gibco®-Invitrogen life technologies, Walthan, USA) and 2 mM L-Glutamin (Gibco®-Invitrogen life technologies, Walthan, USA). Before use, the medium was passed through a 0.2 μm PES membrane vacuum filter (VWR, Radnor, USA). The cells were plated in polystyrene cell culture flasks (surface=75 cm^2) (VWR, Radnor, USA) and placed in the incubator (37° C., 5% CO2) (Thermo Fisher Scientific, Waltham, USA) until confluence was reached (i.e. the cells forming a monolayer covering 80%-90% of the culture flask). The morphology was checked by microscopy (VWR, Radnor, USA). After reaching the confluence (more or less after 5 days) and checking the morphology, cells were split in new culture flasks. […]
To test the toxicity of free and nano-encapsulated ICG, we wanted to seed 7,000 Müller cells in each well of a 96-well plate (VWR, Radnor, USA). The cells were counted with a Bürker counting chamber (BRAND, Wertheim, Germany) to obtain the proper number of cells. […] The non-coloured cells were counted in 6 big squares (3 on each side of the chamber); each big square contained 0.1 μL mixture. […]

[2] = target: T1, collagen fibers (Rattus norvegicus, UniProt P02454+P02466); assay: In vivo laser photo-ablation of intravitreally injected collagen fibers; design: species or system rabbit
T1 construct: host or cells: exogenous fibres injected into the vitreous of New Zealand White rabbits
T1 sequence (P02454 152-1207 limits assumed): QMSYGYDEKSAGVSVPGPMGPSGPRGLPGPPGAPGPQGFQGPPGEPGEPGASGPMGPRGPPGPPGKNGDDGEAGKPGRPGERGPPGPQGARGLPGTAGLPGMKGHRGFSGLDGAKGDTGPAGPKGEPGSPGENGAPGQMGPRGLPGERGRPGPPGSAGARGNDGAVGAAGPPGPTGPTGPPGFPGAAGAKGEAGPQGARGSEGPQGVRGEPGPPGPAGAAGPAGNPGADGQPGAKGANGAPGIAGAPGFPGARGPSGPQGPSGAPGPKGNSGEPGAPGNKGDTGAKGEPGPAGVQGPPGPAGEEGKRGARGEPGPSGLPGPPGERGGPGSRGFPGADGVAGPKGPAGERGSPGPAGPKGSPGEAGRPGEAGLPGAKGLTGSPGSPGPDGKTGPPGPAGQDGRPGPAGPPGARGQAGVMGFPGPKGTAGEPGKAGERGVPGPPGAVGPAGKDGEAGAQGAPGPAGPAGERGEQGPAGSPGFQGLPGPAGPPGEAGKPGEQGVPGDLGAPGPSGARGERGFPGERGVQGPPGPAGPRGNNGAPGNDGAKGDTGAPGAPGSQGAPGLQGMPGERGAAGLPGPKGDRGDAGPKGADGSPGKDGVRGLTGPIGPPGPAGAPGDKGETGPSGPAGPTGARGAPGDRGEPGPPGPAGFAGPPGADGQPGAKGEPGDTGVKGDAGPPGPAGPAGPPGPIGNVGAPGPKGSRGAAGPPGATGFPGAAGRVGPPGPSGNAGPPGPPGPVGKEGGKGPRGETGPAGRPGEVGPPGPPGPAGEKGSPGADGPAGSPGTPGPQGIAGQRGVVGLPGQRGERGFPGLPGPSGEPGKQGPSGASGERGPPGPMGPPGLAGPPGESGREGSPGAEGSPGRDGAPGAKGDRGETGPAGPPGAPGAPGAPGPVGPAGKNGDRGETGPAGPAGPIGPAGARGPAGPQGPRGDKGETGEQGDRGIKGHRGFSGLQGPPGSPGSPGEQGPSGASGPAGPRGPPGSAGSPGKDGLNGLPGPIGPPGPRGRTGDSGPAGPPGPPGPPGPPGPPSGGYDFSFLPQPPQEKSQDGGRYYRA
T1 sequence (P02466 86-1125 limits assumed): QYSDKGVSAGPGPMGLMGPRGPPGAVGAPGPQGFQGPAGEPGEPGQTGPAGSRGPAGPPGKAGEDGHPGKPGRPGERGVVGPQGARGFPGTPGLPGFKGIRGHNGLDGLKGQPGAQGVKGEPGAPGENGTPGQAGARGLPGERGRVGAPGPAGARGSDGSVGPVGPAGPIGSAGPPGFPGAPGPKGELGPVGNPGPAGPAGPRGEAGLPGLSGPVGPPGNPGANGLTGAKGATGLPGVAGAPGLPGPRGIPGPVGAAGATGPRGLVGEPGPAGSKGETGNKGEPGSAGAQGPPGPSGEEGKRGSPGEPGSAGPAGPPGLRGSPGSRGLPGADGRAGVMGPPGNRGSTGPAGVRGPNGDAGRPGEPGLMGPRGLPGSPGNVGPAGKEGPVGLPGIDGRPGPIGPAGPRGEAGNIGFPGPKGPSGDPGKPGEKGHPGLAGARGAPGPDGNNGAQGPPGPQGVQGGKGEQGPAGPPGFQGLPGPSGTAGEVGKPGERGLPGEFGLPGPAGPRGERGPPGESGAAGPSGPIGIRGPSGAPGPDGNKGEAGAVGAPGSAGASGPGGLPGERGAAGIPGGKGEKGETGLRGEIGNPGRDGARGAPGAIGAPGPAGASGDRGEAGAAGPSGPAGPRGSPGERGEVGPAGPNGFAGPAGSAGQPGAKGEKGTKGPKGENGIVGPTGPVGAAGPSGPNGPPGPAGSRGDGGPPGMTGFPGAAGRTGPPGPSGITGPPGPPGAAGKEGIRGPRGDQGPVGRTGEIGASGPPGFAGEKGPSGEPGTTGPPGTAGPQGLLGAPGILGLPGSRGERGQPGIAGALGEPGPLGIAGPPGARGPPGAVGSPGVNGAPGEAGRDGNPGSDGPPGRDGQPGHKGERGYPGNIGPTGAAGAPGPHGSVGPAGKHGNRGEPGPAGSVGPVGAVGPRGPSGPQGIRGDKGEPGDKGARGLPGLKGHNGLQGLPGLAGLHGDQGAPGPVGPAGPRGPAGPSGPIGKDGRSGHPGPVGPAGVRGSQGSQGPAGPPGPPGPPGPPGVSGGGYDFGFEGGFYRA
From the text: (§1) A total of 24 New Zealand White rabbits (age 3-6 months; weight 2.45-3.15 kg; both genders) were used. The rabbits were randomly divided into 7 groups: a control group A treated with laser only (n=3), group B received an intravitreal (IVIT) injection of ICG (n=9), group C received an IVIT injection of ICG labeled collagen fibers (n=3), group D was IVIT injected with collagen fibers followed by an IVIT injection of ICG (n=3), group E was IVIT injected with HA-AuNPs labeled floaters (n=3), and group F was IVIT injected with floaters followed by an IVIT injection of HA-AuNPs (n=3). During the in vivo experiments, animal conditions such as mucous membrane color, heart rate, body heat, and respiratory rate were monitored every 15 minutes. The animals were anesthetized by intramuscular injection of ketamine (40 mg/kg) and xylazine (5 mg/kg). A drop of tropicamide (1%) and phenylephrine hydrochloride (2.5%) was applied into the rabbit eyes to dilate their pupils at 15 min before the imaging procedures. For topical anaesthesia, a drop of topical tetracaine (0.5%) was used. To avoid corneal dehydration during the experiment, a lubricant solution (Systane, Alcon Inc., TX, USA) was added into the eye every minute using a syringe with plastic needle. To maintain the anaesthesia, a dose of ketamine (13 mg/kg) was injected every 45 min. The animal's body heat was maintained using a circulation heat blanket.
First, to visualize the retina of the rabbit eyes, a plastic contact lens was placed on the cornea. When the target location in the vitreous was selected under the microscope, the rabbits under anaesthesia were subsequently intravitreally injected. The intravitreal injections were performed using a 27 gauge needle. […] The position of the fibers was monitored by OCT so that the intravitreal injection of ICG could be performed close the area where the fibers were located. […]
Before laser treatment, the rabbit's eyes were imaged by PAM and OCT (see section above). […] Also, rabbit's vital signs were monitored and recorded until the animals fully recovered from anaesthesia.

[3] = test system: human vitreous opacities; assay: Photo-ablation of human vitreous opacities obtained after vitrectomy; conditions: 0.5 mg/ml
[4] = In vivo clearance of intravitreally injected ICG from the vitreous (fundus imaging); design: species or system rabbit
From the text: as §1
First, to visualize the retina of the rabbit eyes, a plastic contact lens was placed on the cornea. When the target location in the vitreous was selected under the microscope, the rabbits under anaesthesia were subsequently intravitreally injected. The intravitreal injections were performed using a 27 gauge needle. In one series of experiments 40 μL of ICG-fibers (which are collagen fibers treated with ICG) was injected; the concentration of collagen in the dispersions was 0.02 mg/mL. In another series of experiments, 40 μL of collagen fibers (0.02 mg/mL) were intravitreally injected. 5 days after the injection of the fibers, ICG (0.25-1.25 mg/ml) was injected in the vitreous (40 μl). The position of the fibers was monitored by OCT so that the intravitreal injection of ICG could be performed close the area where the fibers were located. Three days after the injection of ICG, laser treatment was performed.
The rabbits were monitored one minute after intravitreal injection of the collagen fibers and at day 4 post intravitreal injection of ICG. Rabbits intravitreally injected with ICG only were followed up for 14 days post injection. The rabbit eyes were assessed by color fundus photography, fluorescence imaging, optical coherence tomography (OCT) and photoacoustic microscopy (PAM), as discussed below. The rabbit's head and body were positioned in two different platforms to minimize breathing and other motion artifacts. The same scanning areas for PAM- and OCT-imaging were monitored by the fundus camera which was integrated in the OCT system. To detect the photoacoustic signal, the ultrasound transducer was placed in contact with the conjunctiva, allowing it to move freely in 3D while not applying any physical pressure on the rabbit eyes. […]
Color fundus photography was performed using a 50-degree color fundus photography system (Topcon 50EX, Topcon Corporation, Tokyo, Japan). […] Fluorescence imaging was done with the Topcon 50EX system using appropriate excitation and emission filters.

[5] = target: T2, type I collagen fibers (Rattus norvegicus, UniProt P02454+P02466); assay: Photo-ablation of artificial floaters with nanosecond laser
T2 construct: type I collagen from the rat tail; purchased GIBCO; host or cells: rat tail (tissue-derived)
T2 sequence (P02454 152-1207 limits assumed): as the sequence (P02454 152-1207 limits assumed) above
T2 sequence (P02466 86-1125 limits assumed): as the sequence (P02466 86-1125 limits assumed) above
Experimental: Collagen fibers were prepared from type I collagen from the rat tail (GIBCO; concentration of 3 mg/ml) as described in Sauvage et al., 2019, ACS Nano, 13, 8401-8416. 5 ml of PBS was pipetted in a 15 ml falcon tube. 330 μL of the PBS solution was replaced by 330 μL collagen type I and the solution was vortexed. Sodium hydroxide (0.1 M) (VWR, Radnor, USA) was added to the acid solution of collagen to adjust pH to 7.4. The solution was vortexed again and placed for one hour in the incubator at 37° C. The final concentration of the collagen was 0.2 mg/ml.
First, dark-field microscopy imaging was performed to locate and align the nanosecond laser (Opolette HE 355 LD, OPOTEK Inc., CA, USA) on the artificial collagen fibers in the sample. Samples of either artificial or human opacities treated with TB, ICG and ICG nanoparticles were then illuminated with the laser (<7 ns). The wavelength of the laser light was 561 nm and the energy was set at ±800 μJ. A beam expander (#GBE05-A, Thorlabs) combined with iris diaphragm (#D37SZ, Thorlabs) were used to adjust the diameter of the laser beam to 150 μm (so that 800 μJ corresponded to a laser fluence of 4.5 J/cm^2). The laser pulse energy was monitored by an energy meter (J-25 MB-HE&LE, Energy Max-USB/RS sensors, Coherent) synchronized with the pulsed-laser. The set-up was made in such way to illuminate the sample shot by shot. Videos of the sample were made during illumination with NIS software. Same experiments were performed with human opacities Comparison Between Free ICG, PAH-ICG NPs and HSA-ICG NPs in Water and Bovine Vitreous.

[6] = target: T1, collagen fibers; assay: In vivo binding of intravitreally injected ICG to collagen fibers (PAM/OCT/fundus imaging); design: species or system rabbit
From the text: A total of 24 New Zealand White rabbits (age 3-6 months; weight 2.45-3.15 kg; both genders) were used. The rabbits were randomly divided into 7 groups: a control group A treated with laser only (n=3), group B received an intravitreal (IVIT) injection of ICG (n=9), group C received an IVIT injection of ICG labeled collagen fibers (n=3), group D was IVIT injected with collagen fibers followed by an IVIT injection of ICG (n=3), group E was IVIT injected with HA-AuNPs labeled floaters (n=3), and group F was IVIT injected with floaters followed by an IVIT injection of HA-AuNPs (n=3). During the in vivo experiments, animal conditions such as mucous membrane color, heart rate, body heat, and respiratory rate were monitored every 15 minutes. […]
First, to visualize the retina of the rabbit eyes, a plastic contact lens was placed on the cornea. […] The position of the fibers was monitored by OCT so that the intravitreal injection of ICG could be performed close the area where the fibers were located. […]
The rabbits were monitored one minute after intravitreal injection of the collagen fibers and at day 4 post intravitreal injection of ICG. […] The rabbit eyes were assessed by color fundus photography, fluorescence imaging, optical coherence tomography (OCT) and photoacoustic microscopy (PAM), as discussed below. […]

[7] = In vivo safety evaluation of treated eyes; design: species or system rabbit
From the text: Before laser treatment, the rabbit's eyes were imaged by PAM and OCT (see section above). For laser treatment, anesthetized rabbits were kept on a custom-built stabilization platform. After acquiring the images and locating the opacities (collagen fibers) by OCT, areas in the eyes (4.5×4.5 mm^2) were illuminated with laser pulses (<7 ns; 1.9 J/cm^2) NT-242, Ekspla, Lithuania) of 800 nm (ICG) to destroy the collagen fibers; the step size of the scanning laser was 9 μm, the beam size equaled 20 μm. During the treatment, real-time OCT was active to monitor the position of the collagen fibers. The 4.5×4.5 mm^2 area was laser scanned several times (3-7 times) until the collagen fibers were completely destroyed. After the laser treatment, PAM and fundus images were performed to evaluate the potential damage of retinal vessels. Also, rabbit's vital signs were monitored and recorded until the animals fully recovered from anaesthesia.
Treated eyes were ophthalmologically evaluated immediately after the laser treatment and followed up for 1 month. Anterior segment structures such as the eyelids, iris, conjunctiva, cornea, anterior chamber and lens were comprehensively examined using slit lamp bio-microscopy (SL120, Carl Zeiss, Germany). In addition, posterior segment structures (i.e., the vitreous, optic nerve and retina) were assessed using a contact fundus lens (Volk Optical Inc, Mentor, Ohio, USA).

[8] = eyes treated with laser with ICG

CC1(C)C(/C=C/C=C/C=C/C=C2\N(CCCCS(=O)(=O)O)c3ccc4ccccc4c3C2(C)C)=[N+](CCCCS(=O)(=O)[O-])c2ccc3ccccc3c21 [ICG, Indocyanine Green]
toxicity on immortalized human retinal cells (MIO-M1) ([1]; 0.5 mg/ml): no clear toxicity
toxicity / metabolic activity (MTT) ([1]; 24 hours, 0.1-1 mg/ml): rather acceptable toxicity up to a concentration of 0.5 mg/ml
destruction of collagen fibers in vivo ([2]; IVIT 0.625 mg/mL, 800 nm, 1.9 J/cm^2): complete destruction of the collagen fibers
laser pulses (scans) sufficient to completely destroy injected collagen fibers ([2]; IVIT 1.25 mg/mL, 800 nm, 1.9 J/cm^2, 3 days after ICG): 5 laser pulses
pulses sufficient to destroy the IVIT injected fibers ([2]; all rabbits tested (n=3)): 3.3+/−1.5 pulses
destruction of human vitreous opacity ([3]; 561 nm, 4.5 J/cm^2): the vitreous opacity could be destroyed
destruction of human vitreous opacity ([3]; 800 nm, 1.1 J/cm^2): the vitreous opacity could be destroyed
visibility of ICG 7 days after injection ([4]; 0.25 mg/ml IVIT): no longer visible at the level of the collagen fibers
visibility of ICG 7 days after injection ([4]; 0.625 mg/ml IVIT): remained only visible at the level of the collagen fibers
visibility of ICG 7 days after injection ([4]; 1.25 mg/ml IVIT): remained only visible at the level of the collagen fibers
visibility of 'free' ICG (not bound to collagen) in vitreous cavity ([4]; 3 days post injection, all concentrations): no longer visible in the vitreous cavity
visibility of injected ICG in vitreous ([4]; after one day, 0.25, 0.625 and 1.25 mg/ml IVIT): most of the injected ICG was no longer visible
binding and destruction of type I collagen fibers ([5]; 0.5 mg/ml): can bind and efficiently destroy type I collagen fibers
location of VNBs during laser pulse on fiber ([5]; nanosecond laser 4.5 J/cm^2): VNBs could be observed at the level of the fiber
reaching and binding of collagen fibers in vivo ([6]; IVIT 1.25 mg/mL, 5 days after fiber injection): could reach and bind the collagen fibers
lowest concentration at which binding to collagen fibers was still observed in vivo ([6]; intravitreal injection): 0.625 mg/mL
anterior segment 30 days post treatment ([7]; 30 days post treatment): normal corneas, eyelids, anterior chamber, conjunctiva and transparent lenses
anterior segment, visual inspection [7, 8]: normal corneas, eyelids, anterior chamber, conjunctiva, and transparent lens
posterior segment, color fundus imaging [7, 8]: no significant changes or injuries in the posterior segment structure
retinal layers, B-scan OCT ([7]; post laser treatment): did not indicate structural disorganization in the retinal layers

Cc1cc(-c2ccc(/N=N/c3c(S(=O)(=O)O)cc4cc(S(=O)(=O)O)cc(N)c4c3O)c(C)c2)ccc1/N=N/c1c(S(=O)(=O)O)cc2cc(S(=O)(=O)O)cc(N)c2c1O [free TB, Trypan Blue]
binding and destruction of type I collagen fibers ([5]; 0.1 mg/ml as printed): can bind and efficiently destroy type I collagen fibers
